Source: ChEMBL document CHEMBL3352542, “Synthesis, biological evaluation and molecular modeling study of 2-(1,3,4-thiadiazolyl-thio and 4-methyl-thiazolyl-thio)-quinazolin-4-ones as a new class of DHFR inhibitors” (Bioorg Med Chem Lett, 2014)
Calls of active or inactive are those of the source. No cut-off for these calls is given here.

Assays:
[1] = molecular target: T1, Dihydrofolate reductase (Bos taurus, UniProt P00376); test: Inhibition of bovine liver DHFR
T1 sequence (P00376 whole entry): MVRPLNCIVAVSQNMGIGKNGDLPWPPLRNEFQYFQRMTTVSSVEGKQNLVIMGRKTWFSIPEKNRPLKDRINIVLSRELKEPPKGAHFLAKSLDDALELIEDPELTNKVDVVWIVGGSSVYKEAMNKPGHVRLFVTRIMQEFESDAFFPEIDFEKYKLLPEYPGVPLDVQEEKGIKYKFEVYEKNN

[2] = test system: Staphylococcus aureus; test: Antimicrobial activity against Staphylococcus aureus assessed as inhibition zone at 200 ug/disk after 24 hrs by disc-diffusion method; assay type: functional; details: read-out: IZ
[3] = test system: Bacillus subtilis; test: Antimicrobial activity against Bacillus subtilis assessed as inhibition zone at 200 ug/disk after 24 hrs by disc-diffusion method; assay type: functional; details: read-out: IZ
[4] = test system: Escherichia coli; test: Antimicrobial activity against Escherichia coli assessed as inhibition zone at 200 ug/disk after 24 hrs by disc-diffusion method; assay type: functional; details: read-out: IZ
[5] = test system: Pseudomonas aeruginosa; test: Antimicrobial activity against Pseudomonas aeruginosa assessed as inhibition zone at 200 ug/disk after 24 hrs by disc-diffusion method; assay type: functional; details: read-out: IZ
[6] = test system: Candida albicans; test: Antimicrobial activity against Candida albicans assessed as inhibition zone at 200 ug/disk after 24 hrs by disc-diffusion method; assay type: functional; details: read-out: IZ
[7] = test system: CCRF-CEM; test: Growth inhibition of human CCRF-CEM cells at 10 uM after 48 hrs; assay type: functional
[8] = test system: HL-60(TB); test: Growth inhibition of human HL-60(TB) cells at 10 uM after 48 hrs; assay type: functional
[9] = test system: K562; test: Growth inhibition of human K562 cells at 10 uM after 48 hrs; assay type: functional
[10] = test system: MOLT-4; test: Growth inhibition of human MOLT4 cells at 10 uM after 48 hrs; assay type: functional
[11] = test system: RPMI-8226; test: Growth inhibition of human RPMI8226 cells at 10 uM after 48 hrs; assay type: functional
[12] = test system: SR; test: Growth inhibition of human SR cells at 10 uM after 48 hrs; assay type: functional
[13] = test system: A549; test: Growth inhibition of human A549 cells at 10 uM after 48 hrs; assay type: functional
[14] = test system: HOP-92; test: Growth inhibition of human HOP92 cells at 10 uM after 48 hrs; assay type: functional
[15] = test system: NCI-H226; test: Growth inhibition of human NCI-H226 cells at 10 uM after 48 hrs; assay type: functional
[16] = test system: NCI-H23; test: Growth inhibition of human NCI-H23 cells at 10 uM after 48 hrs; assay type: functional
[17] = test system: NCI-H460; test: Growth inhibition of human NCI-H460 cells at 10 uM after 48 hrs; assay type: functional
[18] = test system: NCI-H522; test: Growth inhibition of human NCI-H522 cells at 10 uM after 48 hrs; assay type: functional
[19] = test system: COLO 205; test: Growth inhibition of human COLO205 cells at 10 uM after 48 hrs; assay type: functional
[20] = test system: HCC 2998; test: Growth inhibition of human HCC2998 cells at 10 uM after 48 hrs; assay type: functional
[21] = test system: HCT-116; test: Growth inhibition of human HCT116 cells at 10 uM after 48 hrs; assay type: functional
[22] = test system: HCT-15; test: Growth inhibition of human HCT15 cells at 10 uM after 48 hrs; assay type: functional
[23] = test system: HT-29; test: Growth inhibition of human HT-29 cells at 10 uM after 48 hrs; assay type: functional
[24] = test system: KM12; test: Growth inhibition of human KM12 cells at 10 uM after 48 hrs; assay type: functional
[25] = test system: SW-620; test: Growth inhibition of human SW620 cells at 10 uM after 48 hrs; assay type: functional
[26] = test system: SF-268; test: Growth inhibition of human SF268 cells at 10 uM after 48 hrs; assay type: functional
[27] = test system: SF-295; test: Growth inhibition of human SF295 cells at 10 uM after 48 hrs; assay type: functional
[28] = test system: SF-539; test: Growth inhibition of human SF539 cells at 10 uM after 48 hrs; assay type: functional
[29] = test system: SNB-19; test: Growth inhibition of human SNB19 cells at 10 uM after 48 hrs; assay type: functional
[30] = test system: SNB-75; test: Growth inhibition of human SNB75 cells at 10 uM after 48 hrs; assay type: functional
[31] = test system: U-251; test: Growth inhibition of human U251 cells at 10 uM after 48 hrs; assay type: functional
[32] = test system: LOX IMVI; test: Growth inhibition of human LOXIMVI cells at 10 uM after 48 hrs; assay type: functional
[33] = test system: Malme-3M; test: Growth inhibition of human MALME-3M cells at 10 uM after 48 hrs; assay type: functional
[34] = test system: M14; test: Growth inhibition of human M14 cells at 10 uM after 48 hrs; assay type: functional
[35] = test system: MDA-MB-435; test: Growth inhibition of human MDA-MB-435 cells at 10 uM after 48 hrs; assay type: functional
[36] = test system: SK-MEL-5; test: Growth inhibition of human SK-MEL-5 cells at 10 uM after 48 hrs; assay type: functional
[37] = test system: UACC-257; test: Growth inhibition of human UACC257 cells at 10 uM after 48 hrs; assay type: functional
[38] = test system: UACC-62; test: Growth inhibition of human UACC62 cells at 10 uM after 48 hrs; assay type: functional
[39] = test system: OVCAR-3; test: Growth inhibition of human OVCAR3 cells at 10 uM after 48 hrs; assay type: functional
[40] = test system: OVCAR-4; test: Growth inhibition of human OVCAR4 cells at 10 uM after 48 hrs; assay type: functional
[41] = test system: OVCAR-5; test: Growth inhibition of human OVCAR5 cells at 10 uM after 48 hrs; assay type: functional
[42] = test system: OVCAR-8; test: Growth inhibition of human OVCAR8 cells at 10 uM after 48 hrs; assay type: functional
[43] = test system: NCI/ADR-RES; test: Growth inhibition of human NCI-ADR-RES cells at 10 uM after 48 hrs; assay type: functional
[44] = test system: 786-0; test: Growth inhibition of human 786-0 cells at 10 uM after 48 hrs; assay type: functional
[45] = test system: A498; test: Growth inhibition of human A498 cells at 10 uM after 48 hrs; assay type: functional
[46] = test system: ACHN; test: Growth inhibition of human ACHN cells at 10 uM after 48 hrs; assay type: functional
[47] = test system: CAKI-1; test: Growth inhibition of human CAKI-1 cells at 10 uM after 48 hrs; assay type: functional
[48] = test system: RXF 393; test: Growth inhibition of human RXF393 cells at 10 uM after 48 hrs; assay type: functional
[49] = test system: SN12C; test: Growth inhibition of human SN12C cells at 10 uM after 48 hrs; assay type: functional
[50] = test system: TK-10; test: Growth inhibition of human TK10 cells at 10 uM after 48 hrs; assay type: functional
[51] = test system: UO-31; test: Growth inhibition of human UO31 cells at 10 uM after 48 hrs; assay type: functional
[52] = test system: PC-3; test: Growth inhibition of human PC3 cells at 10 uM after 48 hrs; assay type: functional
[53] = test system: MCF7; test: Growth inhibition of human MCF7 cells at 10 uM after 48 hrs; assay type: functional
[54] = test system: MDA-MB-231; test: Growth inhibition of human MDA-MB-231 cells at 10 uM after 48 hrs; assay type: functional
[55] = test system: Hs-578T; test: Growth inhibition of human Hs 578T cells at 10 uM after 48 hrs; assay type: functional
[56] = test system: BT-549; test: Growth inhibition of human BT549 cells at 10 uM after 48 hrs; assay type: functional
[57] = test system: T47D; test: Growth inhibition of human T47D cells at 10 uM after 48 hrs; assay type: functional
[58] = test system: MDA-MB-468; test: Growth inhibition of human MDA-MB-468 cells at 10 uM after 48 hrs; assay type: functional

Cc1ccc2nc(Sc3nnc(N)s3)n(Cc3ccccc3)c(=O)c2c1
IC50 [1]: 2 µM
zone of inhibition at 200 µg/disc [2]: 8 mm
zone of inhibition at 200 µg/disc [3]: 8 mm
zone of inhibition at 200 µg/disc [4]: 8 mm
zone of inhibition at 200 µg/disc [5]: 8 mm
zone of inhibition at 200 µg/disc [6]: 8 mm
growth inhibition (GI) [7]: inactive
growth inhibition (GI) [8]: inactive
growth inhibition (GI) [9]: inactive
growth inhibition (GI) [10]: inactive
growth inhibition (GI) [11]: inactive
growth inhibition (GI) [12]: inactive
growth inhibition (GI) [13]: inactive
growth inhibition (GI) [14]: inactive
growth inhibition (GI) [15]: inactive
growth inhibition (GI) [16]: inactive
growth inhibition (GI) [17]: inactive
growth inhibition (GI) [18]: inactive
growth inhibition (GI) [19]: inactive
growth inhibition (GI) [20]: inactive
growth inhibition (GI) [21]: inactive
growth inhibition (GI) [22]: inactive
growth inhibition (GI) [23]: inactive
growth inhibition (GI) [24]: inactive
growth inhibition (GI) [25]: inactive
growth inhibition (GI) [26]: inactive
growth inhibition (GI) [27]: inactive
growth inhibition (GI) [28]: inactive
growth inhibition (GI) [29]: inactive
growth inhibition (GI) [30]: inactive
growth inhibition (GI) [31]: inactive
growth inhibition (GI) [32]: inactive
growth inhibition (GI) [33]: inactive
growth inhibition (GI) [34]: inactive
growth inhibition (GI) [35]: inactive
growth inhibition (GI) [36]: inactive
growth inhibition (GI) [37]: inactive
growth inhibition (GI) [38]: inactive
growth inhibition (GI) [39]: inactive
growth inhibition (GI) [40]: inactive
growth inhibition (GI) [41]: inactive
growth inhibition (GI) [42]: inactive
growth inhibition (GI) [43]: inactive
growth inhibition (GI) [44]: inactive
growth inhibition (GI) [45]: inactive
growth inhibition (GI) [46]: inactive
growth inhibition (GI) [47]: inactive
growth inhibition (GI) [48]: inactive
growth inhibition (GI) [49]: inactive
growth inhibition (GI) [50]: inactive
growth inhibition (GI) [51]: inactive
growth inhibition (GI) [52]: inactive
growth inhibition (GI) [53]: inactive
growth inhibition (GI) [54]: inactive
growth inhibition (GI) [55]: inactive
growth inhibition (GI) [56]: inactive
growth inhibition (GI) [57]: inactive
growth inhibition (GI) [58]: inactive

COc1cc2nc(Sc3sc(N)nc3C)n(-c3ccc(C)cc3)c(=O)c2cc1OC
IC50 [1]: 8 µM
zone of inhibition at 200 µg/disc [2]: 8 mm
zone of inhibition at 200 µg/disc [3]: 8 mm
zone of inhibition at 200 µg/disc [4]: 8 mm
zone of inhibition at 200 µg/disc [5]: 8 mm
zone of inhibition at 200 µg/disc [6]: 8 mm
growth inhibition (GI) [7]: inactive
growth inhibition (GI) [8]: inactive
growth inhibition (GI) [9]: inactive
growth inhibition (GI) [10]: inactive
growth inhibition (GI) [11]: inactive
growth inhibition (GI) [12]: inactive
growth inhibition (GI) [13]: inactive
growth inhibition (GI) [14]: inactive
growth inhibition (GI) [15]: inactive
growth inhibition (GI) [16]: inactive
growth inhibition (GI) [17]: inactive
growth inhibition (GI) [18]: inactive
growth inhibition (GI) [19]: inactive
growth inhibition (GI) [20]: inactive
growth inhibition (GI) [21]: inactive
growth inhibition (GI) [22]: inactive
growth inhibition (GI) [23]: inactive
growth inhibition (GI) [24]: inactive
growth inhibition (GI) [25]: inactive
growth inhibition (GI) [26]: inactive
growth inhibition (GI) [27]: inactive
growth inhibition (GI) [28]: inactive
growth inhibition (GI) [29]: inactive
growth inhibition (GI) [30]: inactive
growth inhibition (GI) [31]: inactive
growth inhibition (GI) [32]: inactive
growth inhibition (GI) [33]: inactive
growth inhibition (GI) [34]: inactive
growth inhibition (GI) [35]: inactive
growth inhibition (GI) [36]: inactive
growth inhibition (GI) [37]: inactive
growth inhibition (GI) [38]: inactive
growth inhibition (GI) [39]: inactive
growth inhibition (GI) [40]: inactive
growth inhibition (GI) [41]: inactive
growth inhibition (GI) [42]: inactive
growth inhibition (GI) [43]: inactive
growth inhibition (GI) [44]: inactive
growth inhibition (GI) [45]: inactive
growth inhibition (GI) [46]: inactive
growth inhibition (GI) [47]: inactive
growth inhibition (GI) [48]: inactive
growth inhibition (GI) [49]: inactive
growth inhibition (GI) [50]: inactive
growth inhibition (GI) [51]: inactive
growth inhibition (GI) [52]: inactive
growth inhibition (GI) [53]: inactive
growth inhibition (GI) [54]: inactive
growth inhibition (GI) [55]: inactive
growth inhibition (GI) [56]: inactive
growth inhibition (GI) [57]: inactive
growth inhibition (GI) [58]: inactive
